In PubChem BioAssay (NCI):
Values joined by “and” are separate entries in the source; they are usually repeats but may differ in a detail not shown here. Identical values can stand only once.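 These data come from cells grown in 96-well plates and exposed to compound for 48 hours at five concentrations. GI50: concentration for 50% inhibition of growth. TGI denotes the concentration required for complete inhibition of growth.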

What was measured:
Assay in all cases: inhibition of tumour cell growth, NCI panel, 48 h
ACHN renal = tested on: ACHN renal
CAKI-1 renal = tested on: CAKI-1 renal
DLD-1 colon = tested on: DLD-1 colon
K-562 leukemia = tested on: K-562 leukemia
KM20L2 colon = tested on: KM20L2 colon
M19-MEL melanoma = tested on: M19-MEL melanoma
OVCAR-5 ovarian = tested on: OVCAR-5 ovarian
SF-295 CNS = tested on: SF-295 CNS
TK-10 renal = tested on: TK-10 renal
XF 498 CNS = tested on: XF 498 CNS
T-47D breast = tested on: T-47D breast

| Structure (SMILES) | TGI (ACHN renal) [µM] | TGI (CAKI-1 renal) | TGI (DLD-1 colon) [µM] | TGI (K-562 leukemia) [µM] | TGI (KM20L2 colon) [µM] | TGI (M19-MEL melanoma) [µM] | TGI (OVCAR-5 ovarian) | TGI (SF-295 CNS) | TGI (TK-10 renal) [µM] | TGI (XF 498 CNS) [µM] | GI50 (ACHN renal) [µM] | GI50 (CAKI-1 renal) [µM] | GI50 (DLD-1 colon) [µM] | GI50 (K-562 leukemia) [µM] | GI50 (KM20L2 colon) [µM] | GI50 (SF-295 CNS) [µM] | GI50 (TK-10 renal) [µM] | GI50 (OVCAR-5 ovarian) [nM] | GI50 (T-47D breast) [µM] | TGI (T-47D breast) [µM] |
| --- | --- | --- | --- | --- | --- | --- | --- | --- | --- | --- | --- | --- | --- | --- | --- | --- | --- | --- | --- | --- |
| COc1ccc(CC(C#N)c2cc(OC)c(OC)c(OC)c2)cc1 (stereo not given) | > 91.6 | > 81 µM | > 100 | > 47.4 | 0.195 | > 100 | > 96.9 µM | 0.0783 µM | > 100 | 28.6 |  |  |  |  |  |  |  |  |  |  |
| CC(=O)OC1C/C(C)=C/[C@H](O)CC(C)/C=C/[C@@]2(C)CCC(C(C)(C)O)C12 (stereo not given in full) | > 100 | > 100 µM | > 100 | > 100 | > 100 | > 100 | > 100 µM | > 100 µM | > 100 | > 100 |  |  |  |  |  |  |  |  |  |  |
| COC(=O)C1CCC(N2C(=O)CCC2C(=O)OC)=N1 (stereo not given) | > 100 | > 100 µM | > 100 | > 100 | > 100 | > 100 | > 100 µM | > 100 µM | > 100 | > 100 |  |  |  |  |  |  |  |  |  |  |
| Cc1cccc(NC(=O)Cc2nc3ccccc3s2)c1C | > 100 | > 100 µM | > 100 | > 100 | > 100 | > 100 | > 100 µM | > 100 µM | > 100 | > 100 |  |  |  |  |  |  |  |  |  |  |
| C[C@@]1(CBr)C[C@@](C)(/C=C/Cl)[C@@H](Cl)C[C@H]1Cl | 25.7 | 31.7 µM | 27.3 | 25.3 | 24.6 | 25.9 | 26.3 µM | 26.8 µM | 28.7 | 24.5 |  |  |  |  |  |  |  |  |  |  |
| CN(C(=O)C1CC1)C1C2CN3CCC(O2)C13 (stereo not given) | > 100 | > 100 µM | > 100 | > 100 | > 100 | > 100 | > 100 µM | > 100 µM | > 100 |  |  |  |  |  |  |  |  |  |  |  |
| CC(=O)Oc1cc(OC(C)=O)c2cc3c(cc2c1OC(C)=O)C(=O)C1(CCCC1)C3=O | 31.5 | 25.2 µM | 37 | 49.3 | 46.3 | 32 |  | 29.9 µM | 31.3 | 30 |  |  |  |  |  |  |  |  |  |  |
| CN(C)C(=S)/N=c1\ssc(=S)n1Cc1ccccn1 | > 100 | > 100 µM | > 100 |  |  | > 100 | > 100 µM | > 65.7 µM | > 100 | 34.3 |  |  |  |  |  |  |  |  |  |  |
| CC(=O)[CH-]C(=O)c1ccccc1.CC(=O)[CH-]C(=O)c1ccccc1.CC12CC3(C)CC(C)(C1)CC([O-])(C2)C3.CC[O-].[Ti+4] | > 100 | > 100 µM | 78.6 | > 100 | > 100 |  |  | > 100 µM | 62.1 |  | 38.7 | 42.9 | 17 | 34.4 | 35.2 | 33.4 | 26.7 |  |  |  |
| COC(=O)NN=C1C(C)(C)C(=NNC(=O)OC)C1(C)C | > 100 | > 100 µM | > 100 | > 100 | > 100 | > 63.3 | > 100 µM | > 100 µM | > 100 | > 100 |  |  |  |  |  |  |  |  |  |  |
| CCCCc1oc2ccccc2c1C(=O)c1cc(I)c(OCCN(CC)CC)c(I)c1 | 15.6 | 10.7 µM and 15.5 µM | 54.1 | 9.87 |  |  | 7.27 µM and 10.9 µM | 3.81 µM and 8.35 µM | 17.8 | 8.25 | 4.14 | 2.51 |  |  |  | 1.88 | 5.12 | 2460 | 3.16 | 12.2 |
| CC(C)(C)[Si](Nc1ccccc1)(c1ccccc1)c1ccccc1 | 30.1 |  |  | 25.1 | 31.7 | 28.4 |  | 26 µM | 28 | 27.8 |  |  |  |  |  |  |  |  |  |  |
| O/N=C1/C(=C/c2ccc(Cl)cc2)CCCC1C(NO)c1ccc(Cl)cc1 (stereo not given) | > 100 | 53.5 µM | > 100 | 62.2 | 36.6 | 54.7 |  | 36.4 µM | > 100 | 60.1 |  |  |  |  |  |  |  |  |  |  |
| O=C(Cc1nc2ccccc2s1)C(=O)Nc1ccc(Cl)cc1Cl | > 100 |  | > 100 | > 100 | > 100 | > 100 | > 100 µM | > 100 µM | > 100 | > 100 |  |  |  |  |  |  |  |  |  |  |
| CN(C)NC(=S)NC12CC3CC(CC(C3)C1)C2 | > 100 | > 100 µM | > 100 | > 100 | > 100 | > 100 | > 100 µM | > 100 µM | > 100 | > 100 |  |  |  |  |  |  |  |  |  |  |
| CCCCCC/C=C/CCCCCCCc1cccc(O)c1C(=O)O | > 100 | > 100 µM | > 100 | > 100 | > 100 | > 100 | > 100 µM | > 100 µM | > 100 | > 100 |  |  |  |  |  |  |  |  |  |  |
| C[n+]1ccc2[nH]c3ccccc3c2c1 | > 100 | > 100 µM | > 100 | > 100 | > 100 | > 100 | > 100 µM | > 100 µM | > 100 |  |  |  |  |  |  |  |  |  |  |  |
| Cn1c(=O)c2[nH]cnc2n(CC(=O)O)c1=O | > 100 | > 100 µM | > 100 | > 100 | > 100 | > 100 | > 100 µM |  | > 100 | > 100 |  |  |  |  |  |  |  |  |  |  |
| O=C(Nc1ccccc1)OCc1nc2c([nH]1)C(=O)C=CC2=O | 25.2 | 13.4 µM | > 100 | 7.36 | 41 | 29.5 | 36.8 µM | 33.1 µM | 27 | 30.9 |  |  |  |  |  |  |  |  |  |  |
| COc1cc(CCC(=O)NS(=O)(=O)c2ccccc2)cc(OC)c1OC | > 100 | > 100 µM | > 100 | > 100 | > 100 |  | > 100 µM | > 100 µM | > 100 | > 100 |  |  |  |  |  |  |  |  |  |  |
| C/C(CC(=O)Nc1ccc(NC(=O)/C(C)=N/NS(=O)(=O)c2ccc(C)cc2)cc1)=N\NS(=O)(=O)c1ccc(C)cc1 | > 100 | > 100 µM | > 100 | > 100 | > 100 | > 100 | > 100 µM | > 100 µM | > 100 |  |  |  |  |  |  |  |  |  |  |  |
| NC(=O)C12CCC1C1CCCCC12N1CCOCC1 (stereo not given) | > 100 | > 100 µM | > 100 | > 100 | > 100 | > 100 | > 100 µM | > 100 µM | > 100 |  |  |  |  |  |  |  |  |  |  |  |
